Experimental data reported in ChEMBL document CHEMBL5303573, “Mapping human microbiome drug metabolism by gut bacteria and their genes” (Nature, 2019).

assay: The drug is tested on Bifidobacterium breve strain: DSM20213 for biotransformation. The drug concentrations were measured before and after a 12-h incubation by liquid-chromatography-coupled mass spectrometry (LC–MS); conditions: 2 µM

| SMILES | Bacterial Biotransformation |
| --- | --- |
| Br.COc1ccc2c(c1)[C@]13CCCC[C@@H]1[C@H](C2)N(C)CC3.O [DEXTROMETHORPHAN HYDROBROMIDE] | Compound NOT metabolized |
| CC(C)[C@H]1CC[C@H](C(=O)N[C@H](Cc2ccccc2)C(=O)O)CC1 [NATEGLINIDE] | Compound NOT metabolized |
| CNCC[C@H](Oc1cccc2ccccc12)c1cccs1 [DULOXETINE] | Compound NOT metabolized |
| CN1CCC(OC(c2ccccc2)c2ccccc2)CC1 | Compound NOT metabolized |

assay: The drug is tested on Bacteroides caccae strain: ATCC43185 for biotransformation. The drug concentrations were measured before and after a 12-h incubation by liquid-chromatography-coupled mass spectrometry (LC–MS); conditions: 2 µM

| SMILES | Bacterial Biotransformation |
| --- | --- |
| Br.COc1ccc2c(c1)[C@]13CCCC[C@@H]1[C@H](C2)N(C)CC3.O [DEXTROMETHORPHAN HYDROBROMIDE] | Compound NOT metabolized |
| CC(C)[C@H]1CC[C@H](C(=O)N[C@H](Cc2ccccc2)C(=O)O)CC1 [NATEGLINIDE] | Compound NOT metabolized |
| CNCC[C@H](Oc1cccc2ccccc12)c1cccs1 [DULOXETINE] | Compound NOT metabolized |
| CN1CCC(OC(c2ccccc2)c2ccccc2)CC1 | Compound NOT metabolized |

assay: The drug is tested on Bacteroides vulgatus strain: ATCC8482 for biotransformation. The drug concentrations were measured before and after a 12-h incubation by liquid-chromatography-coupled mass spectrometry (LC–MS); conditions: phocaeicola vulgatus, 2 µM

| SMILES | Bacterial Biotransformation |
| --- | --- |
| Br.COc1ccc2c(c1)[C@]13CCCC[C@@H]1[C@H](C2)N(C)CC3.O [DEXTROMETHORPHAN HYDROBROMIDE] | Compound NOT metabolized |
| CC(C)[C@H]1CC[C@H](C(=O)N[C@H](Cc2ccccc2)C(=O)O)CC1 [NATEGLINIDE] | Compound metabolized |
| CN1CCC(OC(c2ccccc2)c2ccccc2)CC1 | Compound NOT metabolized |

assay: The drug is tested on Odoribacter splanchnicus strain: fecal isolate for biotransformation. The drug concentrations were measured before and after a 12-h incubation by liquid-chromatography-coupled mass spectrometry (LC–MS); conditions: 2 µM

| SMILES | Bacterial Biotransformation |
| --- | --- |
| CC(C)[C@H]1CC[C@H](C(=O)N[C@H](Cc2ccccc2)C(=O)O)CC1 [NATEGLINIDE] | Compound metabolized |
| CN1CCC(OC(c2ccccc2)c2ccccc2)CC1 | Compound NOT metabolized |

assay: The drug is tested on Blautia hansenii strain: DSM20583 for biotransformation. The drug concentrations were measured before and after a 12-h incubation by liquid-chromatography-coupled mass spectrometry (LC–MS); conditions: 2 µM

| SMILES | Bacterial Biotransformation |
| --- | --- |
| Br.COc1ccc2c(c1)[C@]13CCCC[C@@H]1[C@H](C2)N(C)CC3.O [DEXTROMETHORPHAN HYDROBROMIDE] | Compound NOT metabolized |
| CC(C)[C@H]1CC[C@H](C(=O)N[C@H](Cc2ccccc2)C(=O)O)CC1 [NATEGLINIDE] | Compound NOT metabolized |
| CNCC[C@H](Oc1cccc2ccccc12)c1cccs1 [DULOXETINE] | Compound metabolized |
| CN1CCC(OC(c2ccccc2)c2ccccc2)CC1 | Compound NOT metabolized |

assay: The drug is tested on Clostridium sp. strain: fecal isolate for biotransformation. The drug concentrations were measured before and after a 12-h incubation by liquid-chromatography-coupled mass spectrometry (LC–MS); conditions: 2 µM

| SMILES | Bacterial Biotransformation |
| --- | --- |
| Br.COc1ccc2c(c1)[C@]13CCCC[C@@H]1[C@H](C2)N(C)CC3.O [DEXTROMETHORPHAN HYDROBROMIDE] | Compound NOT metabolized |
| CC(C)[C@H]1CC[C@H](C(=O)N[C@H](Cc2ccccc2)C(=O)O)CC1 [NATEGLINIDE] | Compound NOT metabolized |
| CNCC[C@H](Oc1cccc2ccccc12)c1cccs1 [DULOXETINE] | Compound metabolized |

assay: The drug is tested on Clostridium scindens strain: ATCC35704 for biotransformation. The drug concentrations were measured before and after a 12-h incubation by liquid-chromatography-coupled mass spectrometry (LC–MS); conditions: 2 µM

| SMILES | Bacterial Biotransformation |
| --- | --- |
| Br.COc1ccc2c(c1)[C@]13CCCC[C@@H]1[C@H](C2)N(C)CC3.O [DEXTROMETHORPHAN HYDROBROMIDE] | Compound NOT metabolized |
| CC(C)[C@H]1CC[C@H](C(=O)N[C@H](Cc2ccccc2)C(=O)O)CC1 [NATEGLINIDE] | Compound NOT metabolized |
| CNCC[C@H](Oc1cccc2ccccc12)c1cccs1 [DULOXETINE] | Compound NOT metabolized |
| CN1CCC(OC(c2ccccc2)c2ccccc2)CC1 | Compound NOT metabolized |

assay: The drug is tested on Clostridium sporogenes strain: ATCC15579 for biotransformation. The drug concentrations were measured before and after a 12-h incubation by liquid-chromatography-coupled mass spectrometry (LC–MS); conditions: 2 µM

| SMILES | Bacterial Biotransformation |
| --- | --- |
| Br.COc1ccc2c(c1)[C@]13CCCC[C@@H]1[C@H](C2)N(C)CC3.O [DEXTROMETHORPHAN HYDROBROMIDE] | Compound NOT metabolized |
| CC(C)[C@H]1CC[C@H](C(=O)N[C@H](Cc2ccccc2)C(=O)O)CC1 [NATEGLINIDE] | Compound NOT metabolized |
| CN1CCC(OC(c2ccccc2)c2ccccc2)CC1 | Compound NOT metabolized |

assay: The drug is tested on Enterococcus faecalis strain: V583 for biotransformation. The drug concentrations were measured before and after a 12-h incubation by liquid-chromatography-coupled mass spectrometry (LC–MS); conditions: 2 µM

| SMILES | Bacterial Biotransformation |
| --- | --- |
| Br.COc1ccc2c(c1)[C@]13CCCC[C@@H]1[C@H](C2)N(C)CC3.O [DEXTROMETHORPHAN HYDROBROMIDE] | Compound NOT metabolized |
| CC(C)[C@H]1CC[C@H](C(=O)N[C@H](Cc2ccccc2)C(=O)O)CC1 [NATEGLINIDE] | Compound NOT metabolized |
| CNCC[C@H](Oc1cccc2ccccc12)c1cccs1 [DULOXETINE] | Compound NOT metabolized |
| CN1CCC(OC(c2ccccc2)c2ccccc2)CC1 | Compound NOT metabolized |

assay: The drug is tested on Ruminococcus lactaris strain: ATCC29176 for biotransformation. The drug concentrations were measured before and after a 12-h incubation by liquid-chromatography-coupled mass spectrometry (LC–MS); conditions: 2 µM

| SMILES | Bacterial Biotransformation |
| --- | --- |
| Br.COc1ccc2c(c1)[C@]13CCCC[C@@H]1[C@H](C2)N(C)CC3.O [DEXTROMETHORPHAN HYDROBROMIDE] | Compound NOT metabolized |
| CC(C)[C@H]1CC[C@H](C(=O)N[C@H](Cc2ccccc2)C(=O)O)CC1 [NATEGLINIDE] | Compound NOT metabolized |
| CN1CCC(OC(c2ccccc2)c2ccccc2)CC1 | Compound NOT metabolized |

assay: The drug is tested on Escherichia coli strain: BW25113 for biotransformation. The drug concentrations were measured before and after a 12-h incubation by liquid-chromatography-coupled mass spectrometry (LC–MS); conditions: 2 µM

| SMILES | Bacterial Biotransformation |
| --- | --- |
| Br.COc1ccc2c(c1)[C@]13CCCC[C@@H]1[C@H](C2)N(C)CC3.O [DEXTROMETHORPHAN HYDROBROMIDE] | Compound NOT metabolized |
| CC(C)[C@H]1CC[C@H](C(=O)N[C@H](Cc2ccccc2)C(=O)O)CC1 [NATEGLINIDE] | Compound NOT metabolized |
| CNCC[C@H](Oc1cccc2ccccc12)c1cccs1 [DULOXETINE] | Compound metabolized |
| CN1CCC(OC(c2ccccc2)c2ccccc2)CC1 | Compound NOT metabolized |

assay: The drug is tested on Providencia rettgeri strain: DSM1131 for biotransformation. The drug concentrations were measured before and after a 12-h incubation by liquid-chromatography-coupled mass spectrometry (LC–MS); assay type: ADME; set-up: dose 2 uM, timepoint 0 vs 12 hours; conditions: 2 µM

| SMILES | Bacterial Biotransformation |
| --- | --- |
| Br.COc1ccc2c(c1)[C@]13CCCC[C@@H]1[C@H](C2)N(C)CC3.O [DEXTROMETHORPHAN HYDROBROMIDE] | Compound NOT metabolized |
| CC(C)[C@H]1CC[C@H](C(=O)N[C@H](Cc2ccccc2)C(=O)O)CC1 [NATEGLINIDE] | Compound NOT metabolized |
| CNCC[C@H](Oc1cccc2ccccc12)c1cccs1 [DULOXETINE] | Compound metabolized |
| CN1CCC(OC(c2ccccc2)c2ccccc2)CC1 | Compound NOT metabolized |

conditions: bifidobacterium adolescentis, 12 h, 2 µM
Description: The drug is tested on Bifidobacterium adolescentis strain: ATCC 15703 for biotransformation. The drug concentrations were measured before and after a 12-h incubation by liquid-chromatography-coupled mass spectrometry (LC–MS)

| SMILES | Bacterial Biotransformation |
| --- | --- |
| Br.COc1ccc2c(c1)[C@]13CCCC[C@@H]1[C@H](C2)N(C)CC3.O [DEXTROMETHORPHAN HYDROBROMIDE] | Compound NOT metabolized |
| CC(C)[C@H]1CC[C@H](C(=O)N[C@H](Cc2ccccc2)C(=O)O)CC1 [NATEGLINIDE] | Compound NOT metabolized |
| CNCC[C@H](Oc1cccc2ccccc12)c1cccs1 [DULOXETINE] | Compound NOT metabolized |
| CN1CCC(OC(c2ccccc2)c2ccccc2)CC1 | Compound NOT metabolized |

conditions: bacteroides fragilis, 12 h, 2 µM
Description: The drug is tested on Bacteroides fragilis strain: 3397 (T10) for biotransformation. The drug concentrations were measured before and after a 12-h incubation by liquid-chromatography-coupled mass spectrometry (LC–MS)

| SMILES | Bacterial Biotransformation |
| --- | --- |
| Br.COc1ccc2c(c1)[C@]13CCCC[C@@H]1[C@H](C2)N(C)CC3.O [DEXTROMETHORPHAN HYDROBROMIDE] | Compound NOT metabolized |
| CC(C)[C@H]1CC[C@H](C(=O)N[C@H](Cc2ccccc2)C(=O)O)CC1 [NATEGLINIDE] | Compound NOT metabolized |
| CN1CCC(OC(c2ccccc2)c2ccccc2)CC1 | Compound NOT metabolized |

conditions: bacteroides thetaiotaomicron, 12 h, 2 µM
Description: The drug is tested on Bacteroides thetaiotaomicron strain: VPI-5482 for biotransformation. The drug concentrations were measured before and after a 12-h incubation by liquid-chromatography-coupled mass spectrometry (LC–MS)

| SMILES | Bacterial Biotransformation |
| --- | --- |
| Br.COc1ccc2c(c1)[C@]13CCCC[C@@H]1[C@H](C2)N(C)CC3.O [DEXTROMETHORPHAN HYDROBROMIDE] | Compound NOT metabolized |
| CC(C)[C@H]1CC[C@H](C(=O)N[C@H](Cc2ccccc2)C(=O)O)CC1 [NATEGLINIDE] | Compound NOT metabolized |
| CNCC[C@H](Oc1cccc2ccccc12)c1cccs1 [DULOXETINE] | Compound NOT metabolized |
| CN1CCC(OC(c2ccccc2)c2ccccc2)CC1 | Compound NOT metabolized |

conditions: parabacteroides distasonis, 12 h, 2 µM
Description: The drug is tested on Parabacteroides distasonis strain: ATCC8503 for biotransformation. The drug concentrations were measured before and after a 12-h incubation by liquid-chromatography-coupled mass spectrometry (LC–MS)

| SMILES | Bacterial Biotransformation |
| --- | --- |
| CC(C)[C@H]1CC[C@H](C(=O)N[C@H](Cc2ccccc2)C(=O)O)CC1 [NATEGLINIDE] | Compound NOT metabolized |
| CNCC[C@H](Oc1cccc2ccccc12)c1cccs1 [DULOXETINE] | Compound NOT metabolized |

conditions: parabacteroides johnsonii, 12 h, 2 µM
Description: The drug is tested on Parabacteroides johnsonii strain: DSM18315 for biotransformation. The drug concentrations were measured before and after a 12-h incubation by liquid-chromatography-coupled mass spectrometry (LC–MS)

| SMILES | Bacterial Biotransformation |
| --- | --- |
| CNCC[C@H](Oc1cccc2ccccc12)c1cccs1 [DULOXETINE] | Compound metabolized |
| CN1CCC(OC(c2ccccc2)c2ccccc2)CC1 | Compound NOT metabolized |

conditions: segatella copri, 12 h, 2 µM
Description: The drug is tested on Prevotella copri strain: DSM18205 for biotransformation. The drug concentrations were measured before and after a 12-h incubation by liquid-chromatography-coupled mass spectrometry (LC–MS)

| SMILES | Bacterial Biotransformation |
| --- | --- |
| CC(C)[C@H]1CC[C@H](C(=O)N[C@H](Cc2ccccc2)C(=O)O)CC1 [NATEGLINIDE] | Compound NOT metabolized |
| CNCC[C@H](Oc1cccc2ccccc12)c1cccs1 [DULOXETINE] | Compound metabolized |
| CN1CCC(OC(c2ccccc2)c2ccccc2)CC1 | Compound NOT metabolized |

conditions: anaerostipes sp., 12 h, 2 µM
Description: The drug is tested on Anaerostipes sp. strain: fecal isolate for biotransformation. The drug concentrations were measured before and after a 12-h incubation by liquid-chromatography-coupled mass spectrometry (LC–MS)

| SMILES | Bacterial Biotransformation |
| --- | --- |
| Br.COc1ccc2c(c1)[C@]13CCCC[C@@H]1[C@H](C2)N(C)CC3.O [DEXTROMETHORPHAN HYDROBROMIDE] | Compound NOT metabolized |
| CC(C)[C@H]1CC[C@H](C(=O)N[C@H](Cc2ccccc2)C(=O)O)CC1 [NATEGLINIDE] | Compound NOT metabolized |
| CNCC[C@H](Oc1cccc2ccccc12)c1cccs1 [DULOXETINE] | Compound NOT metabolized |
| CN1CCC(OC(c2ccccc2)c2ccccc2)CC1 | Compound NOT metabolized |
